Reference: patent US6737383B1, “Herbicidal oxadiazolidines” (priority 1999, dated 2004)

Legend:
[1] = system: pigweed; assay: Test B pre/postemergence pigweed; format: in vivo, Amaranthus retroflexus
How it was run: (§1)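 Response is a visual 0-to-10 score relative to untreated plants, where 0 means no effect and 10 means complete control, taken twelve to sixteen days after application. Treatments went onto soil at planting and onto foliage of 1- to 4-leaf plants, using a surfactant-containing non-phytotoxic solvent.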

[2] = system: surinam grass; assay: Test B pre/postemergence surinam grass; format: in vivo, Brachiaria decumbens
How it was run: as §1

[3] = system: velvetleaf; assay: Test B pre/postemergence velvetleaf; format: in vivo, Abutilon theophrasti
How it was run: as §1

[4] = system: blackgrass; assay: Test B pre/postemergence blackgrass; format: in vivo, Alopecurus myosuroides
How it was run: as §1

[5] = system: smallflower flatsedge; assay: Test B flood test smallflower flatsedge; format: in vivo, Cyperus difformis
How it was run: (§2)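 Read-out is a visual response score from 0 (no effect) to 10 (complete control), assigned by comparison with untreated controls. Treatment was applied at the 2-leaf stage, and plants stayed in the greenhouse for twelve to sixteen days before scoring.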

[6] = system: corn; assay: Test B pre/postemergence corn; format: in vivo, Zea mays
How it was run: as §1

[7] = system: wild oat; assay: Test B pre/postemergence wild oat; format: in vivo, Avena fatua
How it was run: as §1

[8] = system: crabgrass; assay: Test B pre/postemergence crabgrass; format: in vivo, Digitaria sanguinalis
How it was run: as §1

[9] = system: bedstraw; assay: Test B pre/postemergence bedstraw; format: in vivo, Galium aparine; settings: Preemergence
How it was run: as §1

[10] = system: giant foxtail; assay: Test B pre/postemergence giant foxtail; format: in vivo, Setaria faberii
How it was run: as §1

[11] = system: sugar beet; assay: Test B pre/postemergence sugar beet; format: in vivo, Beta vulgaris
How it was run: as §1

[12] = system: bamyardgrass; assay: Test B flood test barnyardgrass; format: in vivo, Echinochloa crus-galli
How it was run: as §2

[13] = system: morningglory; assay: Test B pre/postemergence morningglory; format: in vivo, Ipomoea hederacea
How it was run: as §1

[14] = system: cocklebur; assay: Test B pre/postemergence cocklebur; format: in vivo, Xanthium strumarium
How it was run: as §1

[15] = system: rice; assay: Test B flood test rice; format: in vivo, Oryza sativa
How it was run: as §2

[16] = system: rape; assay: Test B pre/postemergence rape; format: in vivo, Brassica napus
How it was run: as §1

[17] = Postemergence, Rate 250 g/ha, scale 0 to 10, 0 is no effect, 10 is complete control
[18] = Postemergence, Rate 500 g/ha, scale of 0 to 10 where 0 is no effect and 10 is complete control
[19] = Preemergence, Rate 62 g/ha, scale 0 to 10 (0 no effect, 10 complete control)
[20] = Preemergence, Rate 125 g/ha, scale of 0 to 10 where 0 is no effect and 10 is complete control
[21] = Preemergence, Rate 250 g/ha, scale 0 to 10, 0 is no effect, 10 is complete control
[22] = Preemergence, Rate 500 g/ha, scale 0 to 10, 0 is no effect, 10 is complete control
[23] = Postemergence, Rate 125 g/ha, scale 0 to 10, 0 is no effect, 10 is complete control
[24] = Preemergence, Rate 250 g/ha, scale of 0 to 10 where 0 is no effect and 10 is complete control
[25] = Rate 62 g/ha, Postemergence, scale of 0 to 10 where 0 is no effect and 10 is complete control
[26] = Rate 62 g/ha, flood test species, Pre-emergence, visual evaluation after twelve to sixteen days
[27] = Rate 125 g/ha, under heading Pre-emergence, flood test species, visual evaluation after twelve to sixteen days
[28] = Rate 250 g/ha, Pre-emergence, flood-test species, scale 0 to 10, 0 is no effect, 10 is complete control
[29] = Rate 500 g/ha, Pre-emergence, flood test species, scale 0 to 10 (0 no effect, 10 complete control)

## Cc1nc(Cl)sc1C(C)n1c(=O)on(C(=O)N(c2ccccc2)C(C)C)c1=O (centres unmarked) [Compound 407]
[1]; [17]
  Plant response rating, Redroot pigweed: 0
[1]; [18]
  Redroot pigweed plant response rating: 0
[1]; [19]
  Plant response rating, Redroot pigweed: 0
[1]; [20]
  Plant response rating, Redroot pigweed: 0
[1]; [21]
  Redroot pigweed plant response rating: 0
[1]; [22]
  Redroot pigweed plant response rating: 0
[2]; [23]
  Plant response rating, B. signalgrass: 0
[2]; [17]
  Plant response rating, B. signalgrass: 0
[2]; [18]
  B. signalgrass plant response rating: 0
[2]; [19]
  Plant response rating, B. signalgrass: 0
[2]; [20]
  Plant response rating, B. signalgrass: 0
[2]; [24]
  B. signalgrass plant response rating: 0
[2]; Preemergence, Rate 500 g/ha, scale of 0 to 10 where 0 is no effect and 10 is complete control
  B. signalgrass plant response rating: 0
[2]; [25]
  B. signalgrass plant response rating: 0
[3]; [17]
  Plant response rating, Velvetleaf: 0
[3]; [18]
  Velvetleaf plant response rating: 2
[3]; [19]
  Plant response rating, Velvetleaf: 0
[3]; [20]
  Plant response rating, Velvetleaf: 0
[3]; [21]
  Velvetleaf plant response rating: 0
[3]; [22]
  Velvetleaf plant response rating: 0
[4]; [23]
  Plant response rating, Blackgrass: 0
[4]; [17]
  Plant response rating, Blackgrass: 0
[4]; [18]
  Blackgrass plant response rating: 7
[4]; [19]
  Plant response rating, Blackgrass: 0
[4]; [20]
  Plant response rating, Blackgrass: 0
[4]; [24]
  Blackgrass plant response rating: 0
[4]; [22]
  Blackgrass plant response rating: 0
[4]; [25]
  Blackgrass plant response rating: 0
[5]; [26]
  Plant response rating, S. Flatsedge (0 to 10 scale, 0 is no effect, 10 is complete control): 0
[5]; [27]
  S. Flatsedge plant response rating (0 to 10 scale, 0 is no effect, 10 is complete control): 0
[5]; [28]
  S. Flatsedge plant response rating: 0
[5]; [29]
  S. Flatsedge plant response rating: 0
[6]; [23]
  Plant response rating, Corn: 0
[6]; [17]
  Plant response rating, Corn: 0
[6]; [18]
  Corn plant response rating: 0
[6]; [19]
  Plant response rating, Corn: 0
[6]; [20]
  Plant response rating, Corn: 0
[6]; [21]
  Corn plant response rating: 0
[6]; [22]
  Corn plant response rating: 0
[6]; [25]
  Corn plant response rating: 0
[7]; [18]
  Wild oats plant response rating: 0
[7]; [19]
  Plant response rating, Wild oats: 0
[7]; [20]
  Plant response rating, Wild oats: 0
[7]; [21]
  Wild oats plant response rating: 0
[7]; [22]
  Wild oats plant response rating: 0
[8]; [23]
  Plant response rating, Crabgrass: 0
[8]; [17]
  Plant response rating, Crabgrass: 1
[8]; [18]
  Crabgrass plant response rating: 3
[8]; [19]
  Plant response rating, Crabgrass: 0
[8]; [20]
  Plant response rating, Crabgrass: 2
[8]; [21]
  Crabgrass plant response rating: 5
[8]; [22]
  Crabgrass plant response rating: 9
[8]; [25]
  Crabgrass plant response rating: 0
[9]; Rate 62 g/ha, scale 0 to 10 (0 no effect, 10 complete control)
  Plant response rating, Bedstraw: 0
[9]; Rate 125 g/ha, scale of 0 to 10 where 0 is no effect and 10 is complete control
  Plant response rating, Bedstraw: 0
[9]; Rate 250 g/ha, scale of 0 to 10 where 0 is no effect and 10 is complete control
  Bedstraw plant response rating: 0
[9]; Rate 500 g/ha, scale 0 to 10, 0 is no effect, 10 is complete control
  Bedstraw plant response rating: 0
[10]; [23]
  Plant response rating, Giant foxtail: 0
[10]; [17]
  Plant response rating, Giant foxtail: 3
[10]; [18]
  Giant foxtail plant response rating: 8
[10]; [19]
  Plant response rating, Giant foxtail: 0
[10]; [20]
  Plant response rating, Giant foxtail: 6
[10]; [21]
  Giant foxtail plant response rating: 9
[10]; [22]
  Giant foxtail plant response rating: 10
[10]; [25]
  Giant foxtail plant response rating: 0
[11]; [17]
  Plant response rating, Sugarbeets: 0
[11]; [18]
  Sugarbeets plant response rating: 0
[11]; [19]
  Plant response rating, Sugarbeets: 0
[11]; [20]
  Plant response rating, Sugarbeets: 0
[11]; [21]
  Sugarbeets plant response rating: 0
[11]; [22]
  Sugarbeets plant response rating: 0
[12]; [26]
  Plant response rating, Barnyardgrass (0 to 10 scale, 0 is no effect, 10 is complete control): 0
[12]; [27]
  Barnyardgrass plant response rating (0 to 10 scale, 0 is no effect, 10 is complete control): 0
[12]; [28]
  Barnyardgrass plant response rating: 0
[12]; [29]
  Barnyardgrass plant response rating: 0
[13]; [17]
  Plant response rating, Morningglory: 10
[13]; [18]
  Morningglory plant response rating: 10
[13]; [19]
  Plant response rating, Morningglory: 0
[13]; [20]
  Plant response rating, Morningglory: 0
[13]; [21]
  Morningglory plant response rating: 0
[13]; [22]
  Morningglory plant response rating: 0
[14]; [23]
  Plant response rating, Cocklebur: 0
[14]; [17]
  Plant response rating, Cocklebur: 0
[14]; [18]
  Cocklebur plant response rating: 0
[14]; [19]
  Plant response rating, Cocklebur: 0
[14]; [20]
  Plant response rating, Cocklebur: 0
[14]; [21]
  Cocklebur plant response rating: 0
[14]; [22]
  Cocklebur plant response rating: 0
[14]; [25]
  Cocklebur plant response rating: 0
[15]; [26]
  Plant response rating, Rice (0 to 10 scale, 0 is no effect, 10 is complete control): 0
[15]; [27]
  Rice plant response rating (0 to 10 scale, 0 is no effect, 10 is complete control): 0
[15]; [28]
  Rice plant response rating: 0
[15]; [29]
  Rice plant response rating: 0
[16]; [17]
  Plant response rating, Rape: 0
[16]; [19]
  Plant response rating, Rape: 0
[16]; [20]
  Plant response rating, Rape: 0
[16]; [21]
  Rape plant response rating: 0
[16]; [22]
  Rape plant response rating: 0
